What was measured:
B. cereus (ATCC 14579) = test: Nanoplatelet composition vs antibiotic parallel test, B. cereus; type: cell-based
S. aureus (VISA) = test: Nanoplatelet composition vs antibiotic parallel test, VISA; type: cell-based
MRSA (S. aureus) = test: Nanoplatelet composition vs antibiotic parallel test, MRSA; type: cell-based, Staphylococcus aureus
Experimental: The nanoplatelet composition achieved total mitigation of MRSA from a 7 log pathogen population (10 million bacteria per mL) to zero in 3 hours. Levoflaxin, a commonly administered antibiotic used for treating MRSA, was tested at clinical doses and is shown as the dashed line. At various concentrations, the nanoplatelet composition eliminated MRSA more completely than levoflaxin after 24 hours with no rebound.

CRE (K. pneumoniae) = test: Nanoplatelet composition vs antibiotic parallel test, CRE K. pneumoniae; type: cell-based
CRE (E. coli) = test: Nanoplatelet composition vs antibiotic parallel test, CRE E. coli; type: cell-based; conditions: within 24 hours; colistin 2 μg/mL; FIG. 8

## O=C(O)c1cn(C2CC2)c2cc(N3CCNCC3)c(F)cc2c1=O [Cyproflaxin]
B. cereus (ATCC 14579)
  Log Kill: 0.5 Log

## CC(=O)NC[C@H]1CN(c2ccc(N3CCOCC3)c(F)c2)C(=O)O1 [Linezolid]
S. aureus (VISA)
  Log Kill: 0.5 Log

## C[C@H]1COc2c(N3CCN(C)CC3)c(F)cc3c(=O)c(C(=O)O)cn1c23 [Levoflaxin]
MRSA (S. aureus)
  Log Kill: 4.5 Log

## CN(C)c1cc(NC(=O)CNC(C)(C)C)c(O)c2c1C[C@H]1C[C@H]3[C@H](N(C)C)C(O)=C(C(N)=O)C(=O)[C@@]3(O)C(O)=C1C2=O [Tigecycline]
CRE (K. pneumoniae)
  Log Kill: 8 Log
  Time to Zero: 24 h

## Colistin
CRE (E. coli)
  rebound of bacteria population: completely rebounded

— patent publication US20250302051A1, “COMPOSITIONS WITH NANOPLATELET OXIDES OR HYDROXIDES AND METHODS OF PREPARING AND USING SAME” (Aqua Resources Corporation, priority 2024, published 2025)
